Assays:
Experiment in all cases: greenhouse post-emergence herbicidal test
Assay type in all cases: in vivo
Details in all cases: applied post-emergence, rates of application of 0.5 and 0.25 kg/ha, respectively
Chenopodium album = tested on: Chenopodium album
Description: (§1) The seeds of the test plants were sown separately for each species. For the post-emergence treatment, the test plants were first grown to a height of 3 to 15 cm, depending on the plant habit, and only then treated with the active compounds which had been suspended or emulsified in water. For this purpose, the test plants were either sown directly and grown in the same containers, or they were first grown separately as seedlings and transplanted into the test containers a few days prior to treatment. The rate of application for the post-emergence treatment was 0.5 or 0.25 kg/ha of a.s. (active substance). Depending on the species, the plants were kept at 10-25° C. or 20-35° C. The test period extended over 2 to 4 weeks. During this time, the plants were tended, and their response to the individual treatments was evaluated. Evaluation was carried out using a scale from 0 to 100. 100 means no emergence of the plants, or complete destruction of at least the aerial parts, and 0 means no damage, or normal course of growth. The plants used in the greenhouse experiments belonged to the following species: [table]

Echinochloa crus-galli = tested on: Echinochloa crus-galli
Description: as §1

Galium aparine = tested on: Galium aparine
Description: as §1

Setaria faberi = tested on: Setaria faberi
Description: as §1

Setaria viridis = tested on: Setaria viridis
Description: as §1

Sinapis alba = tested on: Sinapis alba
Description: as §1

Solanum nigrum = tested on: Solanum nigrum
Description: as §1

Measured: herbicidal activity

Cc1c(C(=O)C2=C(Cl)C(C)(C)C(=O)C(C)(C)C2=O)ccc2c1S(=O)(=O)CCS2(=O)=O [Compound 4.1, 1-Chloro-2-[(8-methyl-2,3-dihydro-1,1,4,4-tetraoxobenz[1,4]dithiyn-7-yl)carbonyl]-4,4,6,6-tetramethyl-1-cyclohexene-3,5-dione]
very good activity: all assays above
